Test results from patent US9273058B2 (BRISTOL-MYERS SQUIBB COMPANY, priority 2013, dated 2016).
Where two headings read alike, the source gives them in different places.

Key:
[1] = biological target: CK1ε (Homo sapiens, UniProt P49674); assay: CK1ε kinase assay (Caliper LabChip electrophoretic separation of fluoresceinated peptide substrate and product); format: biochemical; conditions: 200 pM CK1ε, 50 μM ATP, 1.5 μM peptide, 22 hours at room temperature
Procedure: CK1ε and CK1δ Kinase Assays
The kinase assay was performed in V-bottom 384-well plates. […] The reaction was incubated at room temperature for 22 hours and terminated by adding 45 μl of 35 mM EDTA to each sample. The reaction mixture was analyzed on the Caliper LABCHIP®3000 (Caliper, Hopkinton, Mass.) by electrophoretic separation of the unphosphorylated substrate and phosphorylated product. […] Compounds were dissolved at 10 mM in dimethylsulfoxide (DMSO) and evaluated at eleven concentrations. IC50 values were derived by non-linear regression analysis.

[2] = biological target: CK1δ (Homo sapiens, UniProt P48730); assay: CK1δ kinase assay (Caliper LabChip electrophoretic separation of fluoresceinated peptide substrate and product); format: biochemical; conditions: 200 pM CK1δ, 50 μM ATP, 1.5 μM peptide, 22 hours at room temperature
Summary of the method: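 Reactions ran 22 hours at room temperature and were stopped with EDTA. Phosphorylated product and unphosphorylated substrate were then separated electrophoretically. Compounds were tested at eleven concentrations, and IC50 values came from non-linear regression.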

Sequence of CK1ε (P49674 whole entry): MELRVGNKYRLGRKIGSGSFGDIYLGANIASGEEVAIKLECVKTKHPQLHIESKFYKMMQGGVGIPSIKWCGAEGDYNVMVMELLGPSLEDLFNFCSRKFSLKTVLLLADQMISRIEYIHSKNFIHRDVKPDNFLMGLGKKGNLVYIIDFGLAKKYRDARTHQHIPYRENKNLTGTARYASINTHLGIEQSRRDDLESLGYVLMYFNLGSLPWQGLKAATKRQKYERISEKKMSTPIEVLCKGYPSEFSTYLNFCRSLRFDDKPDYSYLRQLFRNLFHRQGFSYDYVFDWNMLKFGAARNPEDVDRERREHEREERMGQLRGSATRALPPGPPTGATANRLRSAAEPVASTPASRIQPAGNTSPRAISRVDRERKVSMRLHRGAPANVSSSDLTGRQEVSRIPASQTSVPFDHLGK
Sequence of CK1δ (P48730 whole entry): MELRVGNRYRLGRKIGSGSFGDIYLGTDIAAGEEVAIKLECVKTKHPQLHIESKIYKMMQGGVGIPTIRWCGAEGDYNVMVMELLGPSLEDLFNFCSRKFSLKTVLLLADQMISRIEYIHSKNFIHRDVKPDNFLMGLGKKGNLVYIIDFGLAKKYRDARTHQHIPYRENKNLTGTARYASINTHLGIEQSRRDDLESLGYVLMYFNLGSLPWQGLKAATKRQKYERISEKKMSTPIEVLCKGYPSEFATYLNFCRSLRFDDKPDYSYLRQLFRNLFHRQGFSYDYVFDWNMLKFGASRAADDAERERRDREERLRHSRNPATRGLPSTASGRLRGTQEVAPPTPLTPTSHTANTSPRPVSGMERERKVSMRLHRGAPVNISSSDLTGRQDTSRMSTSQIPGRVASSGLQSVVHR

| Structure (SMILES) | IC50 ([1]; read-out: CK1ε IC50 range) [nM] | IC50 ([2]; read-out: CK1δ IC50 range) [nM] | IC50 ([1]; read-out: CK1ε) [nM] | IC50 ([2]; read-out: CK1δ) [nM] |
| --- | --- | --- | --- | --- |
| NC(=O)c1c(-c2ccc(Cl)c(Cl)c2)nn2c1CN(C(=O)NC1CC3(C1)CC3(F)F)CC2 (single isomer, unassigned) [Compound 325, 2-(3,4-Dichlorophenyl)-N^5-(1,1-difluorospiro[2.3]hexan-5-yl)-6,7-dihydropyrazolo[1,5-a]pyrazine-3,5(4H)-dicarboxamide] | 0.01 to 10 | 0.01 to 10 | – | – |
| CC1(NC(=O)N2CCn3nc(-c4ccc(F)c(Cl)c4)c(C(N)=O)c3C2)CC2(C1)CC2(F)F (single isomer, unassigned) [Compound 326, 2-(3-Chloro-4-fluorophenyl)-N5-(1,1-difluoro-5-methylspiro[2.3]hexan-5-yl)-6,7-dihydropyrazolo[1,5-a]pyrazine-3,5(4H)-dicarboxamide] | 0.01 to 10 | 0.01 to 10 | – | – |
| CC1Cn2nc(-c3ccc(F)c(Cl)c3)c(C(N)=O)c2CN1C(=O)NC(C)(C)C (single isomer, unassigned) [Compound 340, N^5-(tert-Butyl)-2-(3-chloro-4-fluorophenyl)-6-methyl-6,7-dihydropyrazolo[1,5-a]pyrazine-3,5(4H)-dicarboxamide] | 10 to 100 | 0.01 to 10 | – | – |
| CC1Cn2nc(-c3ccc(F)c(Cl)c3)c(C(N)=O)c2CN1C(=O)NC(C)(C)C (single isomer, unassigned) [Compound 341, N^5-(tert-Butyl)-2-(3-chloro-4-fluorophenyl)-6-methyl-6,7-dihydropyrazolo[1,5-a]pyrazine-3,5(4H)-dicarboxamide] | 0.01 to 10 | 10 to 100 | – | – |
| CC1Cn2nc(-c3ccc(F)c(Cl)c3)c(C(N)=O)c2CN1C(=O)NC1CC(F)(F)C1 (single isomer, unassigned) [Compound 342, 2-(3-Chloro-4-fluorophenyl)-N^5-(3,3-difluorocyclobutyl)-6-methyl-6,7-dihydropyrazolo[1,5-a]pyrazine-3,5(4H)-dicarboxamide] | 10 to 100 | 10 to 100 | – | – |
| CC1Cn2nc(-c3ccc(F)c(Cl)c3)c(C(N)=O)c2CN1C(=O)NC1(C)CC(F)(F)C1 (single isomer, unassigned) [Compound 344, 2-(3-Chloro-4-fluorophenyl)-N^5-(3,3-difluoro-1-methylcyclobutyl)-6-methyl-6,7-dihydropyrazolo[1,5-a]pyrazine-3,5(4H)-dicarboxamide] | 0.01 to 10 | 0.01 to 10 | – | – |
| CC1Cn2nc(-c3ccc(F)c(Cl)c3)c(C(N)=O)c2CN1C(=O)NC1(C)CC(F)(F)C1 (single isomer, unassigned) [Compound 345, 2-(3-Chloro-4-fluorophenyl)-N^5-(3,3-difluoro-1-methylcyclobutyl)-6-methyl-6,7-dihydropyrazolo[1,5-a]pyrazine-3,5(4H)-dicarboxamide] | 0.01 to 10 | 0.01 to 10 | – | – |
| CC(C)(C)NC(=O)N1Cc2c(C(N)=O)c(-c3ccc(F)c(Cl)c3)nn2CC1C(F)(F)F (single isomer, unassigned) [Compound 346, N^5-(tert-Butyl)-2-(3-chloro-4-fluorophenyl)-6-(trifluoromethyl)-6,7-dihydropyrazolo[1,5-a]pyrazine-3,5(4H)-dicarboxamide] | 100 to 2000 | 100 to 2000 | – | – |
| CC(C)(C)NC(=O)N1Cc2c(C(N)=O)c(-c3ccc(F)c(Cl)c3)nn2CC1C(F)(F)F (single isomer, unassigned) [Compound 347, N^5-(tert-Butyl)-2-(3-chloro-4-fluorophenyl)-6-(trifluoromethyl)-6,7-dihydropyrazolo[1,5-a]pyrazine-3,5(4H)-dicarboxamide] | 0.01 to 10 | 10 to 100 | – | – |
| COCCC1CN(C(=O)NC(C)(C)C)Cc2c(C(N)=O)c(-c3ccc(F)c(Cl)c3)nn21 (single isomer, unassigned) [Compound A100, N^5-(tert-Butyl)-2-(3-chloro-4-fluorophenyl)-7-(2-methoxyethyl)-6,7-dihydropyrazolo[1,5-a]pyrazine-3,5(4H)-dicarboxamide] | 0.01 to 10 | 10 to 100 | – | – |

Results, then the compound that gave them:

| IC50 ([1]; read-out: CK1ε IC50 range) [nM] | IC50 ([2]; read-out: CK1δ IC50 range) [nM] | IC50 ([1]; read-out: CK1ε) [nM] | IC50 ([2]; read-out: CK1δ) [nM] | Structure (SMILES) |
| --- | --- | --- | --- | --- |
| 0.01 to 10 | 0.01 to 10 | – | – | NC(=O)c1c(-c2ccc(F)c(Cl)c2)nn2c1CN(C(=O)NC1CC3(C1)CC3(F)F)CC2 (single isomer, unassigned) [Compound 321, 2-(3-Chloro-4-fluorophenyl)-N^5-(1,1-difluorospiro[2.3]hexan-5-yl)-6,7-dihydropyrazolo[1,5-a]pyrazine-3,5(4H)-dicarboxamide] |
| 0.01 to 10 | 0.01 to 10 | – | – | NC(=O)c1c(-c2cccc(Cl)c2)nn2c1CN(C(=O)NC1CC3(C1)CC3(F)F)CC2 (single isomer, unassigned) [Compound 322, 2-(3-Chlorophenyl)-N^5-(1,1-difluorospiro[2.3]hexan-5-yl)-6,7-dihydropyrazolo[1,5-a]pyrazine-3,5(4H)-dicarboxamide] |
| 0.01 to 10 | 0.01 to 10 | – | – | NC(=O)c1c(-c2cccc(Cl)c2)nn2c1CN(C(=O)NC1CC3(C1)CC3(F)F)CC2 (single isomer, unassigned) [Compound 323, 2-(3-Chlorophenyl)-N^5-(1,1-difluorospiro[2.3]hexan-5-yl)-6,7-dihydropyrazolo[1,5-a]pyrazine-3,5(4H)-dicarboxamide] |
| 0.01 to 10 | 0.01 to 10 | – | – | NC(=O)c1c(-c2ccc(Cl)c(Cl)c2)nn2c1CN(C(=O)NC1CC3(C1)CC3(F)F)CC2 (single isomer, unassigned) [Compound 324, 2-(3,4-Dichlorophenyl)-N^5-(1,1-difluorospiro[2.3]hexan-5-yl)-6,7-dihydropyrazolo[1,5-a]pyrazine-3,5(4H)-dicarboxamide] |
| 0.01 to 10 | 0.01 to 10 | – | – | CC1(NC(=O)N2CCn3nc(-c4ccc(F)c(Cl)c4)c(C(N)=O)c3C2)CC2(C1)CC2(F)F (single isomer, unassigned) [Compound 327, 2-(3-Chloro-4-fluorophenyl)-N5-(1,1-difluoro-5-methylspiro[2.3]hexan-5-yl)-6,7-dihydropyrazolo[1,5-a]pyrazine-3,5(4H)-dicarboxamide] |
| 0.01 to 10 | 0.01 to 10 | – | – | CC1(NC(=O)N2CCn3nc(-c4ccc(Cl)c(Cl)c4)c(C(N)=O)c3C2)CC2(C1)CC2(F)F (single isomer, unassigned) [Compound 328, 2-(3,4-Dichlorophenyl)-N^5-(1,1-difluoro-5-methylspiro[2.3]hexan-5-yl)-6,7-dihydropyrazolo[1,5-a]pyrazine-3,5(4H)-dicarboxamide] |
| 0.01 to 10 | 0.01 to 10 | – | – | CC1(NC(=O)N2CCn3nc(-c4ccc(Cl)c(Cl)c4)c(C(N)=O)c3C2)CC2(C1)CC2(F)F (single isomer, unassigned) [Compound 329, 2-(3,4-Dichlorophenyl)-N^5-(1,1-difluoro-5-methylspiro[2.3]hexan-5-yl)-6,7-dihydropyrazolo[1,5-a]pyrazine-3,5(4H)-dicarboxamide] |
| 0.01 to 10 | 0.01 to 10 | – | – | CC1(NC(=O)N2CCn3nc(-c4cccc(Cl)c4)c(C(N)=O)c3C2)CC2(C1)CC2(F)F (single isomer, unassigned) [Compound 330, 2-(3-Chlorophenyl)-N^5-(1,1-difluoro-5-methylspiro[2.3]hexan-5-yl)-6,7-dihydropyrazolo[1,5-a]pyrazine-3,5(4H)-dicarboxamide] |
| 0.01 to 10 | 0.01 to 10 | – | – | CC1(NC(=O)N2CCn3nc(-c4cccc(Cl)c4)c(C(N)=O)c3C2)CC2(C1)CC2(F)F (single isomer, unassigned) [Compound 331, 2-(3-Chlorophenyl)-N^5-(1,1-difluoro-5-methylspiro[2.3]hexan-5-yl)-6,7-dihydropyrazolo[1,5-a]pyrazine-3,5(4H)-dicarboxamide] |
| 0.01 to 10 | 0.01 to 10 | – | – | CC1Cn2nc(-c3ccc(F)c(Cl)c3)c(C(N)=O)c2CN1C(=O)NC1CC(F)(F)C1 (single isomer, unassigned) [Compound 343, 2-(3-Chloro-4-fluorophenyl)-N^5-(3,3-difluorocyclobutyl)-6-methyl-6,7-dihydropyrazolo[1,5-a]pyrazine-3,5(4H)-dicarboxamide] |
| 10 to 100 | 100 to 2000 | – | – | CC1(NC(=O)N2Cc3c(C(N)=O)c(-c4ccc(F)c(Cl)c4)nn3CC2C2CC2)CC(F)(F)C1 (single isomer, unassigned) [Compound 348, 2-(3-Chloro-4-fluorophenyl)-6-cyclopropyl-N^5-(3,3-difluoro-1-methylcyclobutyl)-6,7-dihydropyrazolo[1,5-a]pyrazine-3,5(4H)-dicarboxamide] |
| 10 to 100 | 10 to 100 | 20.1 | 34.2 | CC1(NC(=O)N2Cc3c(C(N)=O)c(-c4ccc(F)c(Cl)c4)nn3CC2C2CC2)CC(F)(F)C1 (single isomer, unassigned) [Compound 349, 2-(3-Chloro-4-fluorophenyl)-6-cyclopropyl-N^5-(3,3-difluoro-1-methylcyclobutyl)-6,7-dihydropyrazolo[1,5-a]pyrazine-3,5(4H)-dicarboxamide] |
| 0.01 to 10 | 0.01 to 10 | – | – | CC(C)(C)NC(=O)N1Cc2c(C(N)=O)c(-c3ccc(F)c(Cl)c3)nn2C(CCO)C1 (single isomer, unassigned) [Compound A96, N^5-(tert-Butyl)-2-(3-chloro-4-fluorophenyl)-7-(2-hydroxyethyl)-6,7-dihydropyrazolo[1,5-a]pyrazine-3,5(4H)-dicarboxamide] |
